For the experiment, the system named is CCI rat. To be noted: in vivo.

Turning to `CN1CC[C@]23c4c5ccc(O)c4O[C@H]2[C@@H](O)C=C[C@H]3[C@H]1C5` [morphine], the “antinociceptive effects in a rat model of neuropathic pain” value is listed as “produced antinociceptive effects”, the “duration of antinociceptive effects” value was determined as 3 h and the “selectivity of antinociceptive effects between paws” value is given as “selective for the ipsilateral over the contralateral paw”.

Values taken from patent publication US7851444B2 (priority 2002, dated 2010).
